Measured values taken from patent US20260165983A1, “VITAMIN A FORMULATION” (ADISSEO FRANCE S.A.S., priority 2020, published 2026).

Tests used:
[1] = Dynamic oxidation test by DSC (differential scanning calorimeter) under oxygen flow; type: physicochemical; settings: oxygen flow 50 ml/min; vitamin A acetate with 20% by weight antioxidant; higher temperature = higher antioxidant power
Description: (§1) The antioxidant power measurement methods used in the examples for antioxidant and vitamin A (as vitamin A acetate) mixtures are shown below.
1) Dynamic Oxidation Test by DSC (Differential Scanning Calorimeter)
It is carried out under oxygen flow (50 ml/min) then the temperature is raised to a temperature above the melting point of vitamin A (i.e. above 60° C.).
The oxidation corresponds to an exothermic phenomenon which occurs at a given temperature. For BHT, it occurs at 153° C. The higher the oxidation temperature, the higher the antioxidant power.
All the samples having a temperature greater than or equal to 120° C. will be retained for a much longer Oxipres test.

[2] = Oxipres test (oxygen consumption under O2 pressure); type: physicochemical
Text: as §1
This test consists of putting the samples under O2 pressure at a given temperature. The method allows determining the kinetics of oxygen consumption, expressed by a variation of O2 (ΔP in bars), this variation being all the smaller as the antioxidant power is high.

DSC DYN Onset (oxidation temperature) [1] [°C]	Oxipres Time ([2]; under O2 pressure at a given temperature) [h]	Oxipres ΔP (variation of O2) ([2]; under O2 pressure, smaller ΔP = higher antioxidant power) [Bars]	SMILES
153			Cc1cc(C(C)(C)C)c(O)c(C(C)(C)C)c1 [BHT, 2,6-di-tert-butyl-4-methyl-phenol, reference compound]
60	0	5.0	CC(=O)OC/C=C(C)/C=C/C=C(C)/C=C/C1=C(C)CCCC1(C)C [Sample 1, vitamin A acetate]
